Assay results taken from patent publication US20160220710A1, “COMPOSITIONS AND METHODS FOR DELIVERING PHARMACEUTICAL AGENTS” (THE REGENTS OF THE UNIVERSITY OF MICHIGAN, priority 2015, published 2016).
“Also recorded” adds a separate entry of the source.

Legend:
[1] = test system: carrageenan-based footpad-edema model; assay: Carrageenan footpad edema model, local injection 48 h post carrageenan; type: in vivo, mice; conditions: 30 μl, injected 48 h post carrageenan; for subsequent footpad swelling after local injection: 2 mM
Method: (§1) Mice Carrageenan Footpad Edema Model. Carrageenan (C1867, Sigma-Aldrich®, 2% in PBS, 30 μl) was injected into the right footpad while PBS (30 μl) was injected in the left footpad as a negative control. For preliminary testing of CFZ as an anti-inflammatory agent, 8-week orally fed mice (CFZ and control) were used. For testing of CFZ in soluble and microcrystal form, naïve 4-5 week old mice were injected with carrageenan first followed by injection of CFZ-A (2 mM in DMSO, 30 μl), CLDIs (2 mM equivalent in PBS, 30 μl) or CFZ-HCl (2 mM equivalent in PBS, 30 μl) at 48 h post carrageenan injection. For control experiments, CFZ-A, CLDIs and CFZ-HCl were injected into the right footpads of naïve 4-5 week old mice. DMSO was used as a control for CFZ-A in the left footpad whereas PBS was used as a control for CLDIs and CFZ-HCl. Footpads were measured (length—l, width—w, three thicknesses—t1, t2, t3) at various time points using a digital vernier calliper and changes in the swelling based on volume of the foot was calculated as per above.

footpad swelling = assay: Footpad injections alone in naïve mice; type: in vivo; conditions: 2 mM, 30 μl
Method: as §1

Row | SMILES | footpad swelling inhibition beyond 24 h post therapy ([1]; 2 mM equivalent) | subsequent footpad swelling after local injection [1] | inflammation/swelling after injection alone (footpad swelling)
1 | CC(C)N=c1cc2n(-c3ccc(Cl)cc3)c3ccccc3nc-2cc1Nc1ccc(Cl)cc1.Cl [CFZ-HCl] | sustained for a further 24 h | inhibited for 24 h post therapy | did not induce any measurable inflammation; also recorded: no signs of swelling
2 | CC(C)N=c1cc2n(-c3ccc(Cl)cc3)c3ccccc3nc-2cc1Nc1ccc(Cl)cc1.Cl [CFZ-A] | – | did not lead to a measurable anti-inflammatory response | measurable inflammatory response initially; also recorded: some swelling
